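Cells were grown in 96-well plates and exposed to each compound for 48 hours at five concentrations; endpoints were interpolated linearly between bracketing concentrations, or set to the highest concentration if not reached. At the GI50, growth is halved. TGI denotes the concentration required for complete inhibition of growth.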
Tests used:
Experiment in all cases: NCI tumour cell line growth inhibition, 48 h; in the data active = GI50 below about 0.43 µM; inactive = the rest
[1] = test system: NCI-H522 lung
[2] = test system: SNB-19 CNS
[3] = test system: RXF 393 renal
[4] = test system: NCI-H460 lung
[5] = test system: HT29 colon
[6] = test system: K-562 leukemia
[7] = test system: UACC-62 melanoma
[8] = test system: A549 NSCLC
[9] = test system: CCRF-CEM leukemia
[10] = test system: HCT-15 colon
[11] = test system: HS 578T breast
[12] = test system: SF-295 CNS
[13] = test system: DU-145 prostate
[14] = test system: MALME-3M melanoma
[15] = test system: TK-10 renal
[16] = test system: U251 CNS
[17] = test system: SW-620 colon
[18] = test system: HCC-2998 colon
[19] = test system: MCF7 breast
[20] = test system: BT-549 breast
[21] = test system: SR leukemia
[22] = test system: OVCAR-8 ovarian
[23] = test system: SK-OV-3 ovarian
[24] = test system: OVCAR-3 ovarian
[25] = test system: OVCAR-4 ovarian
[26] = test system: M14 melanoma
[27] = test system: KM12 colon
[28] = test system: MDA-MB-435
[29] = test system: T-47D breast
[30] = test system: SN12C renal
[31] = test system: ACHN renal
[32] = test system: RPMI-8226 leukemia
[33] = test system: SF-268 CNS
[34] = test system: SF-539 CNS
[35] = test system: MDA-MB-231 breast
[36] = test system: 786-0 renal
[37] = test system: HCT-116 colon
[38] = test system: SK-MEL-28 melanoma
[39] = test system: COLO 205 colon
[40] = test system: A498 renal
[41] = test system: PC-3 prostate
[42] = test system: NCI-H226 lung
[43] = test system: NCI/ADR-RES ovarian
[44] = test system: LOX IMVI melanoma
[45] = test system: HOP-62 NSCLC
[46] = test system: UO-31 renal
[47] = test system: OVCAR-5 ovarian
[48] = test system: SK-MEL-2 melanoma
[49] = test system: NCI-H23 lung
[50] = test system: EKVX NSCLC
[51] = test system: IGROV1 ovarian
[52] = test system: HOP-92 NSCLC
[53] = test system: HL-60(TB) leukemia
[54] = test system: MOLT-4 leukemia
[55] = test system: SK-MEL-5 melanoma
[56] = test system: SNB-75 CNS
[57] = test system: UACC-257 melanoma
[58] = test system: CAKI-1 renal

CCNC(=O)Oc1ccc(/C(=C(\C)c2ccc(Cl)cc2)c2ccc(OCCN(CC)CC)cc2)cc1
39.5 µM: TGI [42]
12.8 µM: TGI [28]
10.7 µM: TGI [21]
17.3 µM: TGI [25]
13.5 µM: TGI [16]
12.6 µM: TGI [52]
14.6 µM: TGI [31]
6.44 µM: TGI [5]
3.94 µM: TGI [39]
16.4 µM: TGI [45]
4.12 µM: TGI [12]
10.9 µM: TGI [19]
28.1 µM: TGI [1]
inactive: GI50 [1] 13.3 µM | GI50 [2] 3.13 µM | GI50 [3] 2.35 µM | GI50 [4] 2.09 µM | GI50 [5] 2.52 µM | GI50 [6] 2.18 µM | GI50 [7] 2.07 µM | GI50 [8] 5.63 µM | GI50 [9] 3.38 µM | GI50 [10] 2.21 µM | GI50 [11] 3.72 µM | GI50 [12] 1.85 µM | GI50 [13] 11.1 µM | GI50 [14] 1.7 µM | GI50 [15] 17 µM | GI50 [16] 4.26 µM | GI50 [17] 2.02 µM | GI50 [18] 4.39 µM | GI50 [19] 1.13 µM | GI50 [20] 5.33 µM | GI50 [21] 2.55 µM | GI50 [22] 9.25 µM | GI50 [23] 10.7 µM | GI50 [24] 4.56 µM | GI50 [25] 3.65 µM | GI50 [26] 1.97 µM | GI50 [27] 4.22 µM | GI50 [28] 3.44 µM | GI50 [29] 2.16 µM | GI50 [30] 4.42 µM | GI50 [31] 3.74 µM | GI50 [32] 2.4 µM | GI50 [33] 5.99 µM | GI50 [34] 1.78 µM | GI50 [35] 3.02 µM | GI50 [36] 1.76 µM | GI50 [37] 2.04 µM | GI50 [38] 1.74 µM | GI50 [39] 1.94 µM | GI50 [40] 14.3 µM | GI50 [41] 3.89 µM | GI50 [42] 17.2 µM | GI50 [43] 6.8 µM | GI50 [44] 1.94 µM | GI50 [45] 4.35 µM | GI50 [46] 1.54 µM | GI50 [47] 10.3 µM | GI50 [48] 5.01 µM | GI50 [49] 7.92 µM | GI50 [50] 10.3 µM | GI50 [51] 3.66 µM | GI50 [52] 3.16 µM | GI50 [53] 1.79 µM | GI50 [54] 3.07 µM | GI50 [55] 1.75 µM | GI50 [56] 2.45 µM | GI50 [57] 2.11 µM
3.15 µM: TGI [55]
31.8 µM: TGI [15]
16.3 µM: TGI [18]
11 µM: TGI [54]
4 µM: TGI [7]
17.6 µM: TGI [48]
12.2 µM: TGI [9]
4.86 µM: TGI [37]
7.04 µM: TGI [10]
3.97 µM: TGI [26]
4.02 µM: TGI [44]
4.36 µM: TGI [57]
29.6 µM: TGI [40]
15.3 µM: TGI [51]
16.7 µM: TGI [24]
3.62 µM: TGI [46]
22.1 µM: TGI [49]
12.5 µM: TGI [29]
16.5 µM: TGI [11]
8.45 µM: TGI [2]
24.2 µM: TGI [13]
29.1 µM: TGI [22]
4.37 µM: TGI [53]
4.23 µM: TGI [17]
9.84 µM: TGI [3]
22.7 µM: TGI [43]
8.17 µM: TGI [35]
4.16 µM: TGI [4]
23.1 µM: TGI [47]
3.44 µM: TGI [34]
21 µM: TGI [33]
16.1 µM: TGI [30]
3.61 µM: TGI [14]
18.4 µM: TGI [8] | TGI [56]
22.8 µM: TGI [23]
3.42 µM: TGI [36]
5.37 µM: TGI [6]
23.6 µM: TGI [50]
6 µM: TGI [32]
3.52 µM: TGI [38]
18.5 µM: TGI [20]
15.5 µM: TGI [27]
14.1 µM: TGI [41]

Nc1c(C(=O)c2ccc(C#CCN3CCOCC3)cc2)cnn1-c1ccc(F)cc1
> 25 µM: TGI [1] | TGI [2] | TGI [3] | TGI [4] | TGI [5] | TGI [6] | TGI [7] | TGI [8] | TGI [9] | TGI [10] | TGI [11] | TGI [12] | TGI [13] | TGI [14] | TGI [15] | TGI [16] | TGI [17] | TGI [18] | TGI [19] | TGI [20] | TGI [21] | TGI [22] | TGI [23] | TGI [24] | TGI [25] | TGI [26] | TGI [27] | TGI [28] | TGI [29] | TGI [30] | TGI [31] | TGI [32] | TGI [33] | TGI [34] | TGI [35] | TGI [36] | TGI [37] | TGI [38] | TGI [39] | TGI [58] | TGI [40] | TGI [41] | TGI [42] | TGI [43] | TGI [44] | TGI [45] | TGI [46] | TGI [47] | TGI [48] | TGI [49] | TGI [51] | TGI [52] | TGI [53] | TGI [54] | TGI [55] | TGI [56] | TGI [57]
inactive: GI50 [1] > 25 µM | GI50 [2] > 25 µM | GI50 [3] > 25 µM | GI50 [4] > 25 µM | GI50 [5] > 25 µM | GI50 [6] > 25 µM | GI50 [7] > 25 µM | GI50 [8] > 25 µM | GI50 [9] > 25 µM | GI50 [10] > 25 µM | GI50 [11] > 25 µM | GI50 [12] > 25 µM | GI50 [13] > 25 µM | GI50 [14] > 25 µM | GI50 [15] > 25 µM | GI50 [16] > 25 µM | GI50 [17] > 25 µM | GI50 [18] > 25 µM | GI50 [19] > 25 µM | GI50 [20] > 25 µM | GI50 [21] > 25 µM | GI50 [22] > 25 µM | GI50 [23] > 25 µM | GI50 [24] > 25 µM | GI50 [25] > 25 µM | GI50 [26] > 25 µM | GI50 [27] > 25 µM | GI50 [28] > 25 µM | GI50 [29] > 25 µM | GI50 [30] > 25 µM | GI50 [31] > 25 µM | GI50 [32] > 25 µM | GI50 [33] > 25 µM | GI50 [34] > 25 µM | GI50 [35] > 25 µM | GI50 [36] > 25 µM | GI50 [37] > 25 µM | GI50 [38] > 25 µM | GI50 [39] > 25 µM | GI50 [58] > 25 µM | GI50 [40] > 25 µM | GI50 [41] > 25 µM | GI50 [42] > 25 µM | GI50 [43] > 25 µM | GI50 [44] > 25 µM | GI50 [45] > 25 µM | GI50 [46] > 25 µM | GI50 [47] > 25 µM | GI50 [48] > 25 µM | GI50 [49] > 25 µM | GI50 [51] > 25 µM | GI50 [52] > 25 µM | GI50 [53] > 25 µM | GI50 [54] > 25 µM | GI50 [55] > 25 µM | GI50 [56] > 25 µM | GI50 [57] > 25 µM

Reference: PubChem BioAssay (NCI)
